These results are taken from EPA's ToxValDB 9.5 (doi:10.2903/j.efsa.2016.4421).

Where only a bound is given, the exact number is not on record here.

One series concerns Aphidius rhopalosiphi. Nature of the series: LR50; higher = less toxic. The settings on record: not reported, mortality.
The next series has as its system Oncorhynchus mykiss. The settings on record: acute; duration: 96 hours; mortality.
A further series concerns Lepomis macrochirus. To be noted: acute; duration: 96 hours; mortality.
The next series relates to Anas platyrhynchos. To be noted: acute; oral; unspecified; mortality.
A further series deals with Folsomia candida. The settings on record: chronic/long-term; reproduction.
In the next series the test system is Apis mellifera. To be noted: acute, mortality.
The subject of the next series is Daphnia magna. The settings on record: chronic/long-term; duration: 21 days; growth.
Another series concerns Oryctolagus sp. The settings on record: reproduction developmental.
A further series deals with Hypoaspis aculeifer. The settings on record: chronic/long-term; reproduction.

As a reminder, the LC50 is the concentration lethal to half of the exposed cells or organisms. Usually NOAEL stands for the highest dose or exposure tested at which no adverse effect was seen. `COc1cc(OC)nc(NC(=O)NS(=O)(=O)c2cc(NC=O)ccc2C(=O)N(C)C)n1` [Foramsulfuron]: the LR50 in the series on Aphidius rhopalosiphi (duration: 7 days) was above 60 g/ha; with Aphidius rhopalosiphi, above 5.6 g/ha. Further, the LC50 in the series on Oncorhynchus mykiss and in the series on Lepomis macrochirus was above 100 mg/L each time. Further, the LD50 is above 2000 mg/kg in the series on Anas platyrhynchos; above 2000 mg/kg with Colinus virginianus (acute, oral, mortality); above 4.66 µg/piece with Apis mellifera (dermal); above 5 µg/piece with Apis mellifera (duration: 48 hours, oral, unspecified); above 5000 mg/kg in the series with Rattus norvegicus (acute, oral, mortality). The NOEC with Folsomia candida was 100 mg/kg; with Daphnia magna, 100 mg/L; in the series with Hypoaspis aculeifer it was 1000 mg/kg. The NOEL in the series on Colinus virginianus (reproduction developmental) was found to be 104 mg/kg-day; in the series with Rattus norvegicus (reproduction developmental, F, reproduction) it was 1430 mg/kg-day; with Oryctolagus sp. (no effects) it was 500 mg/kg-day. For the same compound, the no observed adverse effect level (NOAEL) stood at 25 mg/kg-day with Rattus norvegicus (reproduction developmental, duration: 2 years, reproduction) and 50 mg/kg-day in the series with Oryctolagus sp. (body weight).
